# US20060167035A1, “Quinoline derivative, its use, production and pharmaceutical agents containing the latter” (priority 2004, published 2006)
# Biological target: T1, recombinant EphB4 kinase (Homo sapiens, UniProt P54760)
# T1 construct: purchased ProQinase GmbH, Freiburg, Germany
# T1 sequence (P54760 16-987): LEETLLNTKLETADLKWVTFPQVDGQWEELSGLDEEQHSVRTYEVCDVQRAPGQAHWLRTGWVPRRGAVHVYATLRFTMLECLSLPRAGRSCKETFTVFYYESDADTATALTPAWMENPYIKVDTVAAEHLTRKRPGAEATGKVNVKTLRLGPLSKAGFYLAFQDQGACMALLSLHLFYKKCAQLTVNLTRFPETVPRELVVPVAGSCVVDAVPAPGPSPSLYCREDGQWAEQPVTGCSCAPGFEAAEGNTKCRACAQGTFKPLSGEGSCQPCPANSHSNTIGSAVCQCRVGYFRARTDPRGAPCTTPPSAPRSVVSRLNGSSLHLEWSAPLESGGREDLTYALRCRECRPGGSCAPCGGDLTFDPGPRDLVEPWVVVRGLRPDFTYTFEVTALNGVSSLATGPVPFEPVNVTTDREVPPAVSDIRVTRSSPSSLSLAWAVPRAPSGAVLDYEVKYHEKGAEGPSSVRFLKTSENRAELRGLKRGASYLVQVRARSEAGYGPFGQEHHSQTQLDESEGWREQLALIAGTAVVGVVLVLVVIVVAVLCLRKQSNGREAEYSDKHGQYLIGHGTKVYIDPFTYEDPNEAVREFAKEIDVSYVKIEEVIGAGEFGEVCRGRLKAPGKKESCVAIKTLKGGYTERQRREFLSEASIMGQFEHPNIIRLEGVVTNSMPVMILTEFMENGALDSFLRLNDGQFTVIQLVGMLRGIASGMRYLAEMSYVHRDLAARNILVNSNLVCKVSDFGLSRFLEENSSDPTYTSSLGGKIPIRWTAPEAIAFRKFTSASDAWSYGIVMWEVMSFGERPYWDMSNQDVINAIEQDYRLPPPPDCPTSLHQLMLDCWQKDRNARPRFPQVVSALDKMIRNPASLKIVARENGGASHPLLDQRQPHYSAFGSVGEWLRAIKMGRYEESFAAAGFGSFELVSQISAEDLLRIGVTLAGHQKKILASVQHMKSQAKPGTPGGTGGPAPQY
# Experiment: Test System for EphB4 (HTRF kinase assay)
# Type: biochemical
# Conditions: polyGluAlaTyr substrate, 2 μM ATP, HTRF readout, read-out: IC50 of EphB4 kinase inhibition
# Description: A mixture that consists of 20 ng/ml of recombinant EphB4 kinase (ProQinase GmbH, Freiburg, Germany), 2.67 μg/ml of polyGluAlaTyr, 2 μM of ATP, 25 mmol of HEPES (pH 7.3), 5 mmol of MgCl2, 1 mmol of MnCl2, 2 mmol of DTT, 0.1 mmol of NaVO4, 1% (v/v) of glycerol, 0.02% NP40, EDTA-free protease inhibitors (Complete Roche Company, 1 tablet in 50 ml) is incubated for 10 minutes at 20° C. Test substances are dissolved in 100% DMSO and introduced in a 0.017× volume before the reaction begins. 60 minutes after 1.7× volume of a solution of 50 mmol of Hepes, pH 7.0, 0.2% BSA, 0.14 μg/ml of PT66-Europium, 3.84 μg/ml of SA-XL665, 75 mmol of EDTA is added, the batch is measured in a Discovery HTRF measuring device of the PerkinElmer Company.
row,SMILES,IC50 [µM]
1,"Cc1nc2c(ccc3nccc(Nc4cc(O)ccc4C)c32)s1 [Example 2, 4-Methyl-3-(2-methyl-thiazolo[4,5-f]quinolin-9-ylamino)-phenol]",0.27

# Same assay, conditions: polyGluAlaTyr substrate, 2 μM ATP, HTRF readout, read-out: IC50 of EphB4 kinase inhibition (upper bound)
row,SMILES,IC50 [µM]
1,"Cc1ccc(O)cc1Nc1ccnc2ccc3sccc3c12 [Example 1, 4-Methyl-3-(thieno[3,2-f]quinolin-9-ylamino)-phenol]",< 25
2,"Cc1ccc(O)cc1Nc1ccnc2ccc3ccsc3c12 [Example 3, 4-Methyl-3-(thieno[2,3-f]quinolin-9-ylamino)-phenol]",< 25
3,"Cc1ccc(Nc2ccnc3ccc4c(c23)CCS4(=O)=O)cc1O [Example 15, 5-(3,3-Dioxo-2,3-dihydro-1H-3λ^6-thieno[3,2-f]quinolin-9-ylamino)-2-methylphenol]",< 25
4,"O=S1(=O)CCc2c1ccc1nccc(Nc3cccc(O)c3)c21 [Example 5, 3-(3,3-Dioxo-2,3-dihydro-1H-3λ^6-thieno[3,2-f]quinolin-9-ylamino)-phenol]",< 25
5,"Cc1ccc(O)cc1Nc1ccnc2ccc3c(c12)CCS3(=O)=O [Example 4, 3-(3,3-Dioxo-2,3-dihydro-1H-3λ^6-thieno[3,2-f]quinolin-9-ylamino)-4-methyl-phenol]",< 25
6,"Cc1nc2c(ccc3nccc(Nc4cc(O)ccc4C)c32)s1 [Example 2, 4-Methyl-3-(2-methyl-thiazolo[4,5-f]quinolin-9-ylamino)-phenol]",< 25
